Earlier results as cited in patent US9072693B2 (priority 2005, dated 2015).

Experiments:
psoriatic plaques = settings: topical (Lu et al. 1996)
women with PMS [1] = tested on: women with PMS
women with PMS [2] = settings: higher doses once or twice during the luteal phase (Miner 2002)

C=C1/C(=C\C=C2/CCC[C@]3(C)[C@@H]([C@H](C)CCCC(C)(C)O)CC[C@@H]23)C[C@@H](O)C[C@@H]1O [Calcitriol]
effect in psoriatic plaques (psoriatic plaques): decrease keratinocyte proliferation, normalize keratinocyte differentiation and decrease immune activation in plaques

O=C([O-])[O-].[Ca+2] [calcium, calcium carbonate]
reduction of overall PMS symptoms (women with PMS [1]; a number of studies, all 4 major categories of PMS): 50%
overall reduction in total symptom scores compared to placebo (women with PMS [1]; elemental calcium 1200 mg per day as calcium carbonate, within 3 months of therapy, premenopausal women 18-45 years): 48%

C=C1CC[C@H](O)C/C1=C/C=C1\CCC[C@]2(C)[C@@H]([C@H](C)CCCC(C)C)CC[C@@H]12 [cholecalciferol]
safety (10,000 IU daily for 5 months (Heaney)): safe
daily dose at which toxicity occurs (oral ingestion, daily (Vieth R)): 40,000 IU

CNCCC(Oc1ccc(C(F)(F)F)cc1)c1ccccc1 (stereo not drawn) [fluoxetine]
effect on PMS symptomatology (women with PMS [2]): effective in reducing symptomatology
